Data as given in patent US20050058603A1, “Drug delivery system based on polymer nanoshells” (Case Western Reserve University, priority 2003, published 2005).

System: MCF-7 cells
Experiment: Cytotoxicity study of DOX loaded shells vs free doxorubicin solution and empty shells
Settings: 5 days
Experimental: Human breast cancer MCF-7 cells were obtained from ATCC.
Free DOX solution, DOX-loaded shells, and empty shells of different concentrations were used in cell cytotoxicity studies for 5 days.
A cytotoxicity study of DOX loaded shells was carried out in vitro as compared to free doxorubicin solution (FIG. 13).
All samples were incubated in culture media for 5 days.

SMILES: COc1cccc2c1C(=O)c1c(O)c3c(c(O)c1C2=O)C[C@@](O)(C(=O)CO)C[C@@H]3O[C@H]1C[C@H](N)[C@H](O)[C@H](C)O1.Cl [Doxorubicin solution, Doxorubicin]
- cytotoxicity compared to free DOX solution: strongest cytotoxicity
